Tests used:
[1] = tested on: poly(dAdT)2 (DNA, polymer) AT; test: UV thermal melting at 260 nm; details: Na+ (sodium cacodylate buffer, I=0.05 M); pH 7.0; r=[compound]/[polynucleotide]=0.1; per base
[2] = tested on: poly(rG) (RNA, polymer) G; test: fluorimetric titration, Scatchard fit; details: Na+ (sodium cacodylate buffer, I=0.05 M), pH 7.0, n fixed, per base
[3] = tested on: poly(rA)-poly(rU) (RNA, polymer) A/U; test: UV thermal melting at 260 nm; details: Na+ (sodium cacodylate buffer, I=0.05 M); pH 7.0; r=[compound]/[polynucleotide]=0.1; per base
[4] = tested on: poly(dT) (DNA, polymer) T; test: fluorimetric titration, Scatchard fit; details: Na+ (sodium cacodylate buffer, I=0.05 M), pH 7.0, n fixed, per base
[5] = tested on: poly(dAdT)2 (DNA, polymer) AT; test: fluorimetric titration, Scatchard fit; details: Na+ (sodium cacodylate buffer, I=0.05 M), pH 7.0, n fixed, per base
[6] = tested on: poly(rU) (RNA, polymer) U; test: fluorimetric titration, Scatchard fit; details: Na+ (sodium cacodylate buffer, I=0.05 M), pH 7.0, n fixed, per base
[7] = tested on: poly(rA) (RNA, polymer) A; test: fluorimetric titration, Scatchard fit; details: Na+ (sodium cacodylate buffer, I=0.05 M), pH 7.0, n fixed, per base
[8] = tested on: poly(rA)-poly(rU) (RNA, polymer) A/U; test: fluorimetric titration, Scatchard fit; details: Na+ (sodium cacodylate buffer, I=0.05 M), pH 7.0, per base
[9] = tested on: poly(dGdC)2 (DNA, polymer) GC; test: fluorimetric titration, Scatchard fit; details: Na+ (sodium cacodylate buffer, I=0.05 M), pH 7.0, n fixed, per base
[10] = tested on: poly(dA) (DNA, polymer) A; test: fluorimetric titration, Scatchard fit; details: Na+ (sodium cacodylate buffer, I=0.05 M); pH 7.0; compound 5×10^-8 M; n fixed; per base
[11] = tested on: poly(rC) (RNA, polymer) C; test: fluorimetric titration, Scatchard fit; details: Na+ (sodium cacodylate buffer, I=0.05 M), pH 7.0, n fixed, per base
[12] = compound 5×10^-8 M, aggregation at excess dye
[13] = compound 5×10^-8 M, apparent, lowered by competing aggregation

SMILES: Cc1cc(C#Cc2c3ccccc3c(C#Cc3cc(C)c(B(c4c(C)cc([N+](C)(C)C)cc4C)c4c(C)cc([N+](C)(C)C)cc4C)c(C)c3)c3ccccc23)cc(C)c1B(c1c(C)cc([N+](C)(C)C)cc1C)c1c(C)cc([N+](C)(C)C)cc1C
- ΔT m [1]: 6 ± 0.5 °C
- log K S [2]: 8.7
- ΔT m [3]: 8 ± 0.5 °C
- log K S [4]: 7.4
- log K S ([5]; compound 1×10^-8 M, aggregation at excess dye): 7.7
- log K S [6]: 8.8
- log K S [7]: 7.8
- log K S ([8]; compound 1×10^-8 M, limit only): > 9
- log K S ([9]; compound 1×10^-8 M): 7.9

SMILES: Cc1cc(C#Cc2ccc(-c3ccc(C#Cc4cc(C)c(B(c5c(C)cc([N+](C)(C)C)cc5C)c5c(C)cc([N+](C)(C)C)cc5C)c(C)c4)s3)s2)cc(C)c1B(c1c(C)cc([N+](C)(C)C)cc1C)c1c(C)cc([N+](C)(C)C)cc1C
- ΔT m [1]: 3 ± 0.5 °C
- log K S [10]: 7.6
- log K S [2, 12]: 7.1
- ΔT m [3]: 7 ± 0.5 °C
- log K S ([4]; compound 5×10^-8 M): 7.6
- log K S [11, 12]: 7.4
- log K S [5, 13]: 5.1
- log K S ([6]; compound 5×10^-8 M): 7.0
- log K S ([8]; compound 5×10^-8 M, apparent, lowered by competing aggregation, n fixed): 6.0
- log K S [9, 13]: 6.6

SMILES: Cc1cc(C#Cc2ccc(C#Cc3cc(C)c(B(c4c(C)cc([N+](C)(C)C)cc4C)c4c(C)cc([N+](C)(C)C)cc4C)c(C)c3)cc2)cc(C)c1B(c1c(C)cc([N+](C)(C)C)cc1C)c1c(C)cc([N+](C)(C)C)cc1C
- log K S [2]: 8.7
- ΔT m [3]: 9 ± 0.5 °C
- log K S [4]: 8.5
- log K S [11]: 7.1
- log K S ([5]; compound 5×10^-9 M): 7.8
- log K S [6]: 7.4
- log K S [7]: 8.4
- log K S ([8]; n fixed): 8.6
- log K S [9]: 8.4

SMILES: Cc1cc([N+](C)(C)C)cc(C)c1B(c1c(C)cc([N+](C)(C)C)cc1C)c1c2ccccc2c(B(c2c(C)cc([N+](C)(C)C)cc2C)c2c(C)cc([N+](C)(C)C)cc2C)c2ccccc12
- log K S ([2]; compound 5×10^-8 M): 7.3
- ΔT m [3]: 0 ± 0.5 °C
- log K S ([11]; compound 5×10^-8 M): 7.2
- log K S ([5]; compound 5×10^-8 M): 7.4
- log K S ([6]; compound 5×10^-8 M): 7.1
- log K S ([7]; compound 5×10^-8 M): 7.1
- log K S ([8]; compound 5×10^-8 M, n fixed): 7.9
- log K S ([9]; compound 5×10^-8 M): 7.8

Source: paper PMC8048639 (2021)
